Results as given in US20090271892A1, “LYSOPHOSPHATIDIC ACID ACYLTRANSFERASE GENES AND USES THEREOF” (priority 2006, published 2009).

Biological target: T1, Litchi sinensis LPAAT (LsLPAAT, pEW108), mutant of SEQ ID No 2 in the last C-terminal amino acids, SEQ ID No 1 (Litchi chinensis, UniProt A0A346D9Z1)
T1 construct: araBAD promoter, E. coli JC201 microsomes
Experiment: LPAAT assay, kinetic parameters with C18:1-CoA, E. coli JC201 microsomes
Type: biochemical
Details: C18:1-CoA 0-50 μM, 10 min, 30° C., pH7.5, N = 4
Text: FIG. 1: Kinetics of phosphatidic acid synthesis using ^14C-C18:1-CoA on ^3H-LPA as substrates and Brassica napus (SEQ ID No 5) and Litchi microsomal (SEQ ID NO 1) LPAATs as enzymes. Duplicate measurements for one experiment are shown.
The inventors have identified one putative Lysophosphatidic Acid-Acyl Transferase from Lychee (SEQ ID No 2). They also have obtained a mutated protein derived from this protein, which is depicted as SEQ ID No 1.
Plasmids pEW108 and 117 comprising genes coding for SEQ ID No 1 and SEQ ID No 2 respectively under the control of the araBAD promoter (Guzman, L-M. et al. (1995) J Bacteriology 177: 4121-4130) were prepared and used to transform and complement an E. coli strain. The araBAD promoter is induced by arabinose, repressed by glucose and is used in the art to express polynucleotides in a controlled manner.
The following experiments were performed with the Escherichia coli JC201 mutant strain, which is temperature conditional in endogenous LPAAT activity and able to grow at 30° C. but not at 44° C. (genotype plsC, described in Coleman, 1990 J. Biol. Chem., 265 (28), 17215-21.). These bacteria were kept at −80° C. as 1 ml glycerol stocks. […] Optical density was measured at 600 nm and each flask was then cultivated for 6 hours at 30 and 44° C. respectively in order to check by optical density measurement that bacterial growth occurs at 30° C. but not at 44° C. […]

T1 sequence (A0A346D9Z1 entry or part of it, change not shown): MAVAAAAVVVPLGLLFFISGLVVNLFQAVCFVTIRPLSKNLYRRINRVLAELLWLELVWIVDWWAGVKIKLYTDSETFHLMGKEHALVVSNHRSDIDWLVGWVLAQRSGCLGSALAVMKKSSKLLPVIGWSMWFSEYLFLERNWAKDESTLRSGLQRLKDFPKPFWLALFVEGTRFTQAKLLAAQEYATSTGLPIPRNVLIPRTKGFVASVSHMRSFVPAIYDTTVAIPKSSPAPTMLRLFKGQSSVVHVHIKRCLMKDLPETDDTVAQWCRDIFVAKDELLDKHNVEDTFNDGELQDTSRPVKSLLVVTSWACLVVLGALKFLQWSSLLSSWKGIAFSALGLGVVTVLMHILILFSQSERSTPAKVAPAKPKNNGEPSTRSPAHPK

## CCCCCCCC/C=C\CCCCCCCC(=O)SCCNC(=O)CCNC(=O)[C@H](O)C(C)(C)COP(=O)(O)OP(=O)(O)OC[C@H]1O[C@@H](n2cnc3c(N)ncnc32)[C@H](O)[C@@H]1OP(=O)(O)O [C18:1-CoA, Oleoyl-CoA]
  Km: 7.3 ± 4.1 µM
Apparent Vmax, per mg total protein
  Vmax: 1557 ± 616 pmol · mg prot^−1 · min^−1
